Assay results: ChEMBL document CHEMBL3046182, “Development of a rapid resistance monitoring bioassay for codling moth larvae” (2012)
Converted amounts (≈) assume the structure as drawn.

Legend:
Assay type in all cases: functional
[1] = system: Cydia pomonella; experiment: Insecticidal activity against po dosed Cydia pomonella (codling moth) lab-s neonate measured after 4 days
[2] = system: Cydia pomonella; experiment: Insecticidal activity against po dosed fourth-instar larvae of Cydia pomonella (codling moth) lab-s measured after 4 days
[3] = system: Cydia pomonella; experiment: Insecticidal activity against Cydia pomonella (codling moth) lab-s neonate compound applied topically measured after 4 days; details: topical, 96 h
[4] = system: Cydia pomonella; experiment: Insecticidal activity against fourth-instar larvae of Cydia pomonella (codling moth) lab-s compound applied topically measured after 4 days; details: topical, 96 h
[5] = system: Cydia pomonella; experiment: Insecticidal activity against po dosed 15 day-old larvae of Cydia pomonella (codling moth) lab-s reared on apple assessed as mortality measured after 4 days
[6] = system: Cydia pomonella; experiment: Insecticidal activity against po dosed fourth-instar larvae of Cydia pomonella (codling moth) Clear Creek abandoned measured after 4 days
[7] = system: Cydia pomonella; experiment: Insecticidal activity against po dosed 10 day-old larvae of Cydia pomonella (codling moth) Owensby reared on apple assessed as mortality measured after 4 days
[8] = system: Cydia pomonella; experiment: Insecticidal activity against po dosed 10 day-old larvae of Chlorantraniliprole-selected Cydia pomonella (codling moth) reared on apple assessed as mortality measured after 4 days
[9] = system: Cydia pomonella; experiment: Insecticidal activity against po dosed 10 day-old larvae of Cydia pomonella (codling moth) lab-s reared on apple assessed as mortality measured after 4 days
[10] = system: Cydia pomonella; experiment: Insecticidal activity against po dosed fourth-instar larvae of Cydia pomonella (codling moth) Gilbert measured after 4 days
[11] = system: Cydia pomonella; experiment: Insecticidal activity against po dosed 10 day-old larvae of Cydia pomonella (codling moth) Gilbert reared on apple assessed as mortality measured after 4 days
[12] = system: Cydia pomonella; experiment: Insecticidal activity against po dosed fourth-instar larvae of Cydia pomonella (codling moth) Holt measured after 4 days
[13] = system: Cydia pomonella; experiment: Insecticidal activity against po dosed 20 day-old larvae of Cydia pomonella (codling moth) reared on apple assessed as mortality measured after 4 days
[14] = system: Cydia pomonella; experiment: Resistant ratio of LC50 for Cydia pomonella (codling moth) Holt neonate to Cydia pomonella (codling moth) Glibert neonate
[15] = system: Cydia pomonella; experiment: Insecticidal activity against po dosed 11 day-old larvae of spinetoram-selected Cydia pomonella (codling moth) reared on apple assessed as mortality measured after 4 days
[16] = system: Cydia pomonella; experiment: Insecticidal activity against po dosed Cydia pomonella (codling moth) Clear Creek abandoned neonate measured after 4 days
[17] = system: Cydia pomonella; experiment: Insecticidal activity against po dosed Cydia pomonella (codling moth) Gilbert neonate measured after 4 days
[18] = system: Cydia pomonella; experiment: Resistant ratio of LC50 for fourth-instar larvae of Cydia pomonella (codling moth) Holt to fourth-instar larvae of Cydia pomonella (codling moth) Glibert
[19] = system: Cydia pomonella; experiment: Resistant ratio of LC50 for fourth-instar larvae of Cydia pomonella (codling moth) lab-s to fourth-instar larvae of Cydia pomonella (codling moth) Glibert
[20] = system: Cydia pomonella; experiment: Insecticidal activity against po dosed 10 day-old larvae of Cydia pomonella (codling moth) lab-s measured after 4 days
[21] = system: Cydia pomonella; experiment: Insecticidal activity against po dosed Cydia pomonella (codling moth) Holt neonate measured after 4 days
[22] = system: Cydia pomonella; experiment: Resistant ratio of LC50 for Cydia pomonella (codling moth) lab-s neonate to Cydia pomonella (codling moth) Glibert neonate
[23] = system: Cydia pomonella; experiment: Insecticidal activity against po dosed 15 day-old larvae of Cydia pomonella (codling moth) reared on apple assessed as mortality measured after 4 days

CCO[C@@H]1[C@@H](OC)[C@H](C)O[C@@H](O[C@@H]2C[C@H]3CC[C@@H]4[C@@H](C=C5C(=O)[C@H](C)[C@@H](O[C@H]6CC[C@H](N(C)C)[C@@H](C)O6)CCC[C@H](CC)OC(=O)C[C@H]54)[C@@H]3C2)[C@@H]1OC.CCO[C@@H]1[C@@H](OC)[C@H](C)O[C@@H](O[C@H]2C[C@H]3[C@@H]4C=C5C(=O)[C@H](C)[C@@H](O[C@H]6CC[C@H](N(C)C)[C@@H](C)O6)CCC[C@H](CC)OC(=O)C[C@H]5[C@@H]4C=C(C)[C@@H]3C2)[C@@H]1OC
LC50 [1]: 0.09 µg/mL
LC50 [2]: 0.16 µg/mL

C/C(=N\C#N)N(C)Cc1ccc(Cl)nc1 [ACETAMIPRID]
LC50 [3]: 0.26 µg/mL (≈ 1.17 µM)
LC50 [4]: 1.12 µg/mL (≈ 5.03 µM)

O=C(NC(=O)c1c(F)cccc1F)Nc1ccc(OC(F)(F)C(F)OC(F)(F)F)c(Cl)c1 (configuration not stated) [NOVALURON]
LC50 [1]: 1.08 µg/mL (≈ 2.19 µM)
LC50 [2]: 1.16 µg/mL (≈ 2.35 µM)

CNC(=O)c1cc(Cl)cc(C)c1NC(=O)c1cc(Br)nn1-c1ncccc1Cl [CHLORANTRANILIPROLE]
LC50 [1]: 0.2 µg/mL (≈ 0.414 µM)
LC50 [2]: 0.19 µg/mL (≈ 0.393 µM)

COc1cccc(C(=O)NN(C(=O)c2cc(C)cc(C)c2)C(C)(C)C)c1C [METHOXYFENOZIDE]
mortality [5]: 98.4%
LC50 [6]: 1.35 µg/mL (≈ 3.66 µM)
LC99 [6]: 28.38 µg/mL
LC50 [1]: 1.2 µg/mL (≈ 3.26 µM)
LC99 [1]: 14.15 µg/mL
mortality [7]: 31.3%
mortality [8]: 100%
mortality [9]: 99.2%
LC50 [10]: 15.2 µg/mL (≈ 41.3 µM)
LC99 [10]: 202 µg/mL
LC50 [2]: 2.3 µg/mL (≈ 6.24 µM)
LC99 [2]: 18.27 µg/mL
mortality [11]: 93.6%
LC50 [12]: 38.7 µg/mL (≈ 105 µM)
LC99 [12]: 5061.9 µg/mL
mortality [13]: 50%
RatioLC50 [14]: 24
mortality [15]: 83.3%
LC50 [16]: 95 µg/mL (≈ 258 µM)
LC99 [16]: 14.57 µg/mL
LC50 [17]: 9.5 µg/mL (≈ 25.8 µM)
LC99 [17]: 389.4 µg/mL
RatioLC50 [18]: 16.7
RatioLC50 [19]: 6.6
LC95 [20]: 10 µg/mL (≈ 27.1 µM)
LC50 [21]: 28.5 µg/mL (≈ 77.3 µM)
LC99 [21]: 5320.8 µg/mL
RatioLC50 [22]: 8
mortality [23]: 55.1%
